Results from PMC8179539, “Query-guided protein–protein interaction inhibitor discovery” (Chemical Science, 2021).
Several values for one entry are separate records, joined by “and”; a condition that tells them apart may be missing. Equal entries are not always repeated. Where two headings read alike, the source gives them in different places.

Assays:
p53/hDM2 = p53/hDM2 (Homo sapiens, UniProt Q00987); assay: competition fluorescence anisotropy assay, displacement of p53 15-31 Flu from hDM2; format: binding; settings: for ligand efficiency: LE = 1.4 × pIC50/nHA, from p53/hDM2 fluorescence anisotropy IC50
BID/MCL-1 = BID/MCL-1 (Homo sapiens, UniProt Q07820); settings: 200 nM MCL-1, 50 nM FITC-Ahx-NOXA-B tracer (Fig. S10)
GKAP/SHANK1-PDZ = biological target: T1, GKAP/SHANK1-PDZ (Homo sapiens, UniProt Q9Y566); assay: fluorescence anisotropy competition assay GKAP/SHANK1-PDZ; format: binding; settings: for IC50: FITC-GKAP 50 nM, SHANK1-PDZ 1 μM, pH 7.4, 20 mM Tris, 150 mM NaCl, 0.01% Triton-X-100
T1 construct: Shank 1 PDZ domain (656-762) was expressed and purified as described; made in house
T1 sequence (Q9Y566 656-762): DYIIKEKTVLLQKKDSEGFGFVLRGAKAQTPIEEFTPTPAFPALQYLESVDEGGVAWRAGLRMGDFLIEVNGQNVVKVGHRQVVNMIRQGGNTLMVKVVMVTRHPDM

SHANK1-PDZ = SHANK1-PDZ (Homo sapiens, UniProt Q9Y566); assay: biochemical
[1] = Table S2, SAR competition assays, Plate Reader II, read-out: IC50
[2] = fluorescence anisotropy competition, 150 nM hDM2, 25 nM p53 15-31 Flu, 40 mM phosphate pH 7.4, 200 mM NaCl, 0.02 mg/ml BSA, read-out: IC50
[3] = Table S2, SAR competition assays, Plate Reader II, * lower anisotropy observed, attributed to solubility causing assay interference (7a, 7b, 7c), read-out: IC50
[4] = Fig. 4b, same assay, unit inferred, † non-specific interactions observed (11c), read-out: IC50 (Fig. 4b, numbers inside wedges)
[5] = Fig. 4b, fluorescence anisotropy competition: 150 nM hDM2 and p53 15-31 Flu, 40 mM phosphate, pH 7.4, 200 mM NaCl, 0.02 mg/ml BSA, > 150 μM, read-out: IC50 (Fig. 4b)

Molecule	IC50 (p53/hDM2; [1])	IC50 (p53/hDM2; [2])	IC50 (p53/hDM2; [3])	also measured
CC(C(=O)NCCc1ccccn1)C(c1ccc(Cl)s1)c1c[nH]c2ccc(Cl)cc12 (single isomer, unassigned; (+)) [(+)-anti-10]	2.9 ± 0.4 µM	2.9 µM		
CC(C(=O)NCCc1ccccn1)C(c1ccc(Cl)s1)c1c[nH]c2ccc(Cl)cc12 (single isomer, unassigned; (-)) [(−)-anti-10]	4.6 ± 0.6 µM	4.6 µM		
O=C(CC(c1ccc(Cl)s1)c1c[nH]c2ccc(Cl)cc12)NC1CC1c1ccccc1 (stereo not drawn) [7a]			1.2 ± 1 µM	
O=C(CC(c1ccc(Cl)s1)c1c[nH]c2ccc(Cl)cc12)NCCc1ccccc1 (stereo not drawn) [7b]			13 ± 2 µM	
O=C(CC(c1ccc(Cl)s1)c1c[nH]c2ccc(Cl)cc12)NCc1ccccc1 (stereo not drawn) [7c]			5 ± 2 µM	p53/hDM2 inhibitory activity in words (SAR) (p53/hDM2; competition anisotropy, SAR discussion): loss of activity
COCCNC(=O)CC(c1ccc(Cl)s1)c1c[nH]c2ccc(Cl)cc12 (stereo not drawn) [7d]			> 200 µM	
O=C(CC(c1ccc(Cl)s1)c1c[nH]c2cc(Cl)ccc12)NCCc1ccccn1 (stereo not drawn) [8a]		6 µM	10 ± 2 µM	
O=C(CC(c1ccc(Cl)s1)c1c[nH]c2cc(Cl)ccc12)NCCc1ccccc1 (stereo not drawn) [8b]			18 ± 11 µM	
COCCNC(=O)CC(c1ccc(Cl)s1)c1c[nH]c2cc(Cl)ccc12 (stereo not drawn) [8c]			86 ± 29 µM	
O=C(CC(c1ccccc1)c1c[nH]c2ccc(Cl)cc12)NCCc1ccccn1 (stereo not drawn) [9a]			> 200 µM	
O=C(CC(c1ccccc1)c1c[nH]c2ccc(Cl)cc12)NCCc1ccccc1 (stereo not drawn) [9b]			> 200 µM	
COCCNC(=O)CC(c1ccccc1)c1c[nH]c2ccc(Cl)cc12 (stereo not drawn) [9d]			> 200 µM	
O=C(CC(c1ccc(Cl)s1)c1c(Br)[nH]c2cc(Cl)ccc12)NCCc1ccccn1 (stereo not drawn) [11a]	1.7 ± 0.2 µM	1 µM		IC50 (p53/hDM2; [4]): 2 µM; ligand efficiency (p53/hDM2): 0.28
O=C(CC(c1ccc(Cl)s1)c1c(C(=O)O)[nH]c2ccc(Cl)cc12)NCCc1ccccn1 (stereo not drawn) [11b]	2.9 ± 0.2 µM			IC50 (p53/hDM2; [4]): 3 µM; ligand efficiency (p53/hDM2): 0.26
CCOC(=O)CCNC(=O)c1[nH]c2ccc(Cl)cc2c1C(CC(=O)NCCc1ccccn1)c1ccc(Cl)s1 (stereo not drawn) [11c]	3.2 ± 0.7 µM			IC50 (p53/hDM2; [4]): 3 µM
O=C(CC(c1ccc(Cl)s1)c1c(Br)[nH]c2ccc(Cl)cc12)NCCc1ccccn1 (stereo not drawn) [11d]	12 ± 9 µM			
O=C(O)CCNC(=O)c1[nH]c2ccc(Cl)cc2c1C(CC(=O)NCCc1ccccn1)c1ccc(Cl)s1 (stereo not drawn) [11e]	14 ± 2 µM			
NCCNC(=O)c1[nH]c2ccc(Cl)cc2c1C(CC(=O)NCCc1ccccn1)c1ccc(Cl)s1 (stereo not drawn) [11f]	25 ± 4 µM	25 µM		
CC(C)(C)OC(=O)NCCNC(=O)c1[nH]c2ccc(Cl)cc2c1C(CC(=O)NCCc1ccccn1)c1ccc(Cl)s1 (stereo not drawn) [11g]	> 200 µM			
O=C(CC(c1ccc(Cl)s1)c1c(C(=O)NCc2ccccc2)[nH]c2ccc(Cl)cc12)NCCc1ccccn1 (stereo not drawn) [11h]	> 200 µM			
CC(C)CNC(=O)c1[nH]c2ccc(Cl)cc2c1C(CC(=O)NCCc1ccccn1)c1ccc(Cl)s1 (stereo not drawn) [11i]	> 200 µM			
O=C(CC(c1ccc(Cl)s1)c1c[nH]c2ccc(Cl)cc12)NCCc1ccccn1 (stereo not drawn) [A1]		7.9 µM and 8 µM	7.9 ± 0.9 µM	IC50 (p53/hDM2; [4]): 8 µM; ligand efficiency (p53/hDM2): 0.24; inhibition in FA competition assay for BID/MCL-1 (BID/MCL-1): no inhibition
NS(=O)(=O)c1ccc2c(c1)[C@@H]1C=CC[C@@H]1[C@H](C(=O)O)N2 [Z-1]				IC50 (GKAP/SHANK1-PDZ): 390 µM; ligand efficiency (LE) (GKAP/SHANK1-PDZ; from GKAP/SHANK1-PDZ fluorescence anisotropy IC50): 0.24
O=C(O)c1ccc([N+](=O)[O-])c2c1NC(C(=O)O)[C@H]1CC=C[C@@H]21 (stereo partly drawn) [Z-2, reference compound]				IC50 (GKAP/SHANK1-PDZ): ~110 µM
CC(C(=O)NCCc1ccccn1)C(c1ccc(Cl)s1)c1c[nH]c2ccc(Cl)cc12 (stereo not drawn) [anti-10]	3.1 ± 0.4 µM	3.1 µM		ligand efficiency (p53/hDM2): 0.26
CC(C)(C(=O)NCCc1ccccn1)C(c1ccc(Cl)s1)c1c[nH]c2ccc(Cl)cc12 (stereo not drawn) [compound 12]	8 ± 4 µM	~8 µM		IC50 (p53/hDM2; [5]): 8 µM
CC(C(=O)N1CCC(c2ccccn2)C1)C(c1ccc(Cl)s1)c1c[nH]c2cc(Cl)ccc12 (stereo not drawn) [compound 13]	1.2 ± 0.4 µM	1.2 µM		IC50 (p53/hDM2; [5]): 1 µM
O=C(CC(c1ccc(Cl)s1)c1c(C(=O)O)[nH]c2ccc(Cl)cc12)NC1CC1c1ccccc1 (stereo not drawn) [compound 14]	2.2 ± 0.5 µM	2.2 µM		IC50 (p53/hDM2; [5]): 2 µM
CC(C(=O)NCCc1ccccn1)C(c1ccc(Cl)s1)c1c[nH]c2ccc(Cl)cc12 (stereo not drawn) [syn-10]	21 ± 14 µM			
Ac-EAQTRF-OH [L6F GKAP, Ac-Glu-Ala-Gln-Thr-Arg-Phe-CO2H]				Kd (SHANK1-PDZ): 5 µM
